From PMC10935023 (Acta Pharmaceutica Sinica. B, 2023)

What was measured:
[1] = test system: hippocampal slices, CA1; assay: LTP recording; type: in vivo, mouse; settings: 30 mg/kg i.p. + scopolamine 1 mg/kg i.p.
[2] = target: 5-HT1A (Homo sapiens, UniProt P08908); assay: Receptor binding, [3H]-8-OH-DPAT; settings: read-out: % Inhibition of binding by D01 (10 μmol/L)
[3] = test system: hippocampal neurons; assay: Resting membrane potential and firing of cultured hippocampal neurons; type: cell-based, rat; settings: 100 μmol/L
[4] = target: Sigma-1 (Homo sapiens, UniProt Q99720); assay: Receptor binding, [3H]-Pentazocine; settings: read-out: % Inhibition of binding by D01 (10 μmol/L)
[5] = target: 5-HT1B (Homo sapiens, UniProt P28222); assay: Receptor binding, [3H]-GR-125743; settings: read-out: % Inhibition of binding by D01 (10 μmol/L)
[6] = target: D3 (Homo sapiens, UniProt P35462); assay: Receptor binding, [3H]-Spiperone; settings: read-out: % Inhibition of binding by D01 (10 μmol/L)
[7] = test system: animals; assay: Observation of epileptic behavior in treated animals; type: in vivo; settings: up to 100 mg/kg
[8] = target: 5-HT2A (Homo sapiens, UniProt P28223); assay: Receptor binding, [3H]-Ketanserin; settings: read-out: % Inhibition of binding by D01 (10 μmol/L)
[9] = target: M1 (Homo sapiens, UniProt P11229); assay: Receptor binding, [3H]-QNB; settings: read-out: % Inhibition of binding by D01 (10 μmol/L)
[10] = target: SERT (Rattus norvegicus, UniProt P31652); assay: [3H]5-HT uptake by crude synaptosomes; type: biochemical
[11] = test system: CRS mice; assay: Morris water maze; type: in vivo, mouse
[12] = target: H3 (Homo sapiens, UniProt Q9Y5N1); assay: Receptor binding, [3H]-Methylhistamine; settings: read-out: % Inhibition of binding by D01 (10 μmol/L)
[13] = test system: scopolamine-treated mice; assay: NOR in scopolamine-induced cognitive deficit; type: in vivo, mouse
[14] = test system: CRS mice; assay: FST in chronic restraint stress; type: in vivo, mouse
[15] = target: KCNQ2/3 channels (Homo sapiens, UniProt O43525+O43526); type: cell-based
[16] = target: α1; assay: Receptor binding, [3H]-Prazosin
[17] = target: serotonin transporter (SERT) (Rattus norvegicus, UniProt P31652); type: binding
[18] = test system: mice; assay: Tail suspension test; type: in vivo, mouse; settings: i.g., 60 min before test, doses 10, 30, 100 mg/kg
[19] = test system: CRS mice; assay: TST in chronic restraint stress; type: in vivo, mouse
[20] = target: D1 (Homo sapiens, UniProt P21728); assay: Receptor binding, [3H]-SCH23390; settings: read-out: % Inhibition of binding by D01 (10 μmol/L)
[21] = test system: NMDA; assay: Receptor binding, [3H]-MK801
[22] = target: 5-HT2C (Homo sapiens, UniProt P28335); assay: Receptor binding, [3H]-Mesulergine; settings: read-out: % Inhibition of binding by D01 (10 μmol/L)
[23] = test system: native KCNQ/M channels; assay: Whole-cell recording of native M current in cultured hippocampal neurons; settings: measured at −60 mV
[24] = target: H1 (Homo sapiens, UniProt P35367); assay: Receptor binding, [3H]-Pyrilamine
[25] = test system: normal mice; assay: Novel object recognition; type: in vivo, mouse
[26] = target: D2 (Homo sapiens, UniProt P14416); assay: Receptor binding, [3H]-Spiperone; settings: read-out: % Inhibition of binding by D01 (10 μmol/L)
[27] = test system: α2; assay: Receptor binding, [3H]-Rauwolscine; settings: α2, 10 μmol/L
[28] = test system: mice; assay: Forced swimming test; type: in vivo, mouse; settings: i.g., 1 h before test, doses 10, 30, 100 mg/kg
[29] = fluoxetine 20 mg/kg i.g., 21 days

H1, sequence (P35367 whole entry): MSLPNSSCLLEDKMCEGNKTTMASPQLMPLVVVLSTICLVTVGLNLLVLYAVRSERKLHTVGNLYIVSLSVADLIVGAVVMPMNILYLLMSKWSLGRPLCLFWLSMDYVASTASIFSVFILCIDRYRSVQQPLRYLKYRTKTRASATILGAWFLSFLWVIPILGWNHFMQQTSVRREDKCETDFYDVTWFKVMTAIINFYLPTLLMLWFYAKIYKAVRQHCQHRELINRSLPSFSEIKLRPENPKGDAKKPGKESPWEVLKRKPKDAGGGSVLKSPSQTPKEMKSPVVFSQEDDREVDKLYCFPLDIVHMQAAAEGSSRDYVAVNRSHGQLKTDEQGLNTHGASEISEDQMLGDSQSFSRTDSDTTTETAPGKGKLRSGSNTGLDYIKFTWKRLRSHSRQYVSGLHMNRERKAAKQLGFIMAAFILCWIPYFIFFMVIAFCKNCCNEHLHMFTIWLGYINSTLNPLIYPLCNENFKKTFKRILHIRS
5-HT2A, sequence (P28223 whole entry, species assumed): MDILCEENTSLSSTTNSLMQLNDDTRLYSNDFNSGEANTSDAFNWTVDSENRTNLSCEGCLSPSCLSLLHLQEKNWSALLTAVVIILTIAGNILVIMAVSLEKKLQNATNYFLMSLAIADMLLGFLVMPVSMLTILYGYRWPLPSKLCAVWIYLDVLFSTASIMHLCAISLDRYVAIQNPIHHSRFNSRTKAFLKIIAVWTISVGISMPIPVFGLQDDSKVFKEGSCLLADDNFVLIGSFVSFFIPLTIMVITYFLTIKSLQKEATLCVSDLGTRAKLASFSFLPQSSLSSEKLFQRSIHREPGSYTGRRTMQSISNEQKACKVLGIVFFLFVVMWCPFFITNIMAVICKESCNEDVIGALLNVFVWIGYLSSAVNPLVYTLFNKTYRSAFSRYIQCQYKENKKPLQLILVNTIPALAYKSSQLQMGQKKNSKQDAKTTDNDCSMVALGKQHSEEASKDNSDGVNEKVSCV
Sigma-1, sequence (Q99720 whole entry): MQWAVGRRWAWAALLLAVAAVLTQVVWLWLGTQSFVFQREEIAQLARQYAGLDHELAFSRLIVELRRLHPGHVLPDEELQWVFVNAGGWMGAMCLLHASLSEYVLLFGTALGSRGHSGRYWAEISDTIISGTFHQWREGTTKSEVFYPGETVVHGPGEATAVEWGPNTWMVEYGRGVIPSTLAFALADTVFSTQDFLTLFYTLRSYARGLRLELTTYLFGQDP
D3, sequence (P35462 whole entry): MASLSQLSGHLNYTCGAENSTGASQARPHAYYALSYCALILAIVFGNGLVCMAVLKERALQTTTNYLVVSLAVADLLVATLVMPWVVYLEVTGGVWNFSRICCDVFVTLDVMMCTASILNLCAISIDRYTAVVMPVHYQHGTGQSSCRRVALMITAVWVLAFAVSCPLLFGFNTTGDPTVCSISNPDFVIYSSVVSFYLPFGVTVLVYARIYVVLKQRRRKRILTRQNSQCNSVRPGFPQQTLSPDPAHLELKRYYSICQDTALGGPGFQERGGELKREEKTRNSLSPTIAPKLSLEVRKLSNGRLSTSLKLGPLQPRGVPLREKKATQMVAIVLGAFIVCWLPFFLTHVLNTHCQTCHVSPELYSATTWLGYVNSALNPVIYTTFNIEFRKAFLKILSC
D2, sequence (P14416 whole entry): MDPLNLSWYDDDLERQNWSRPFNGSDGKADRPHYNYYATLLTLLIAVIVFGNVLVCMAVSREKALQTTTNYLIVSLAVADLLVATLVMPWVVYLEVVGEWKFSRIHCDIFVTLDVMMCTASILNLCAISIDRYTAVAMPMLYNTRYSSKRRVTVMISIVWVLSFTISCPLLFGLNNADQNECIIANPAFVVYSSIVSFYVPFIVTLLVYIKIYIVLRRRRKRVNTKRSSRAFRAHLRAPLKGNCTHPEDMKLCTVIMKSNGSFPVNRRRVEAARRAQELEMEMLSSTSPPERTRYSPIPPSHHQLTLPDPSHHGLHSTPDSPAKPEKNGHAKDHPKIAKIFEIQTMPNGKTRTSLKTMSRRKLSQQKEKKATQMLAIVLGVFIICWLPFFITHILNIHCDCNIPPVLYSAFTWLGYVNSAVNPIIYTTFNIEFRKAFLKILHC
D1, sequence (P21728 whole entry): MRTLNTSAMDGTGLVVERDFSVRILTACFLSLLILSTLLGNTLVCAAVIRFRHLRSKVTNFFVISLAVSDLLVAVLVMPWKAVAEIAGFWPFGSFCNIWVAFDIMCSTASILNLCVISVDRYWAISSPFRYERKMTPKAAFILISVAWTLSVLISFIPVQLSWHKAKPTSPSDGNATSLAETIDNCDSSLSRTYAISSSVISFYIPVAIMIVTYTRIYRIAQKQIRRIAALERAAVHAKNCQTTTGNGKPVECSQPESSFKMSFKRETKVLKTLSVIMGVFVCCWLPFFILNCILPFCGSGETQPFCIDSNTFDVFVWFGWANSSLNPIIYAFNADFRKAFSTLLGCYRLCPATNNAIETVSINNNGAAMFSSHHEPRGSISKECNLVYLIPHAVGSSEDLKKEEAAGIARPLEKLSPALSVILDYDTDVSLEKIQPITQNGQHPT
5-HT2C, sequence (P28335 33-458, species assumed): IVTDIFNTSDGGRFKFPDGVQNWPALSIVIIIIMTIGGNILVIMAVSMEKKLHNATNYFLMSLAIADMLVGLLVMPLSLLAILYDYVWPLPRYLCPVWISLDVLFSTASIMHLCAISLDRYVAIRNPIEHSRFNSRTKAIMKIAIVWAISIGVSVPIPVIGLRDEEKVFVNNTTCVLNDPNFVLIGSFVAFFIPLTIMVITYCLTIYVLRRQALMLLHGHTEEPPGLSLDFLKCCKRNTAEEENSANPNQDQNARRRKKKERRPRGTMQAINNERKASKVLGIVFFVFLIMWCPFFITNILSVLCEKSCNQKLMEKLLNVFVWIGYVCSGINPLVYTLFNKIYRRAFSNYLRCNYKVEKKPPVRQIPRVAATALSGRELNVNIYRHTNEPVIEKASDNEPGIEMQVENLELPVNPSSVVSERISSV
5-HT1A, sequence (P08908 whole entry, species assumed): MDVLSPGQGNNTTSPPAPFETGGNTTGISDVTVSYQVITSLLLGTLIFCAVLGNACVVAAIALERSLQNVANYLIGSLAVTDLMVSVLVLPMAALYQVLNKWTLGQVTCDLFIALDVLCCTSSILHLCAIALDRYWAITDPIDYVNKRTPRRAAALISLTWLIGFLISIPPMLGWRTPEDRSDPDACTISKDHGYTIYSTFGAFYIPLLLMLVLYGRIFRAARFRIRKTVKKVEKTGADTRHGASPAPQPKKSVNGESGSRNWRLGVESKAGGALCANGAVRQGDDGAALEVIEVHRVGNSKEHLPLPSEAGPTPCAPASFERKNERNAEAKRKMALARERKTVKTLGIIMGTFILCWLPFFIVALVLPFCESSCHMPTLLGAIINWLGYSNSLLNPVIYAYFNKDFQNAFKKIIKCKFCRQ
serotonin transporter (SERT), sequence (P31652 whole entry): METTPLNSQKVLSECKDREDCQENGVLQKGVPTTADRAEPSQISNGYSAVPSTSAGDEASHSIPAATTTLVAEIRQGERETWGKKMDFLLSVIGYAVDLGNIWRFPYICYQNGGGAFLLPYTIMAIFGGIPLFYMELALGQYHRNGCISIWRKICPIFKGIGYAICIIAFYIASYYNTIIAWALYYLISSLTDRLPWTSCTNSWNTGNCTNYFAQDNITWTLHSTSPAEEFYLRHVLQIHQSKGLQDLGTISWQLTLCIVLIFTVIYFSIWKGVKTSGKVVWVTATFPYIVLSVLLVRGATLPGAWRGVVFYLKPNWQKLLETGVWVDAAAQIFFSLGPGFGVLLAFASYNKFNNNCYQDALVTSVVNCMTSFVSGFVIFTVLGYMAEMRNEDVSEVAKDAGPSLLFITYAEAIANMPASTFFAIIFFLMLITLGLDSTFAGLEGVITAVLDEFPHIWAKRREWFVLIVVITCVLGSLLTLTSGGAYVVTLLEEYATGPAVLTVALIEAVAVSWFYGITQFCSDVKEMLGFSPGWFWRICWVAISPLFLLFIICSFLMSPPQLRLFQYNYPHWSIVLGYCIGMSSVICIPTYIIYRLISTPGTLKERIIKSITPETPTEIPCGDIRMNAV
SERT, sequence (P31652 whole entry): as above
5-HT1B, sequence (P28222 whole entry, species assumed): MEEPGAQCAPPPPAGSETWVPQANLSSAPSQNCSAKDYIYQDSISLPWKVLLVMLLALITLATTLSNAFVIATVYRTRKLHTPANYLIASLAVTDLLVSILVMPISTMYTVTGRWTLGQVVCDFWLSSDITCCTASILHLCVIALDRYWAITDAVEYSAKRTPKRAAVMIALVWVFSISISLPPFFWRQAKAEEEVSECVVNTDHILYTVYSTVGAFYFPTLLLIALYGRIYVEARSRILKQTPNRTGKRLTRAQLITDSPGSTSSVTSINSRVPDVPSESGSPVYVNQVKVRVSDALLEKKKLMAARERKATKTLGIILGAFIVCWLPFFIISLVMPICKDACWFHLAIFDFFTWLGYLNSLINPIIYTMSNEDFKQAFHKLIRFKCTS

CC(CN(C)C)C(Oc1cccc2ccccc12)c1cccs1 (centres unmarked) [Compound D01, N,N,2-trimethyl-3-(1-naphthyloxy)-3-(thien-2-yl) propan-1-amine]
effect on scopolamine-induced LTP inhibition [1]: significantly reversed | inhibition at 10 µM [2]: -24.1% | effect on resting membrane potential [3]: depolarizes | significant increase of firing frequency [3]: did not observe | inhibition at 10 µM [4]: 34% | inhibition at 10 µM [5]: 12% | inhibition at 10 µM [6]: 32.8% | epileptic behavior [7]: did not observe | inhibition at 10 µM [8]: 25.1% | inhibition at 10 µM [9]: 24.7% | IC50 [10]: 0.045 ± 0.009 µM | distance traveled while crossing the target zone, probe trial Day 5 ([11]; 10 mg/kg i.g.): 4748.7 ± 308.1 cm | escape latency after four days of training ([11]; 10 mg/kg i.g.): 37.3 ± 3.1 s | initial escape latency ([11]; 10 mg/kg i.g.): 51.1 ± 2.5 s | distance traveled while crossing the target zone, probe trial Day 5 ([11]; 20 mg/kg i.g.): 4501.3 ± 266.5 cm | escape latency after four days of training ([11]; 20 mg/kg i.g.): 32.2 ± 3.6 s | initial escape latency ([11]; 20 mg/kg i.g.): 45.7 ± 3.7 s | time in the target quadrant, probe trial Day 5 ([11]; 20 mg/kg i.g.): 15.8 ± 0.8 s | distance traveled while crossing the target zone, probe trial Day 5 ([11]; 40 mg/kg i.g.): 4357.5 ± 310.9 cm | escape latency after four days of training ([11]; 40 mg/kg i.g.): 30.1 ± 3.9 s | initial escape latency ([11]; 40 mg/kg i.g.): 42.6 ± 3.5 s | time in the target quadrant, probe trial Day 5 ([11]; 40 mg/kg i.g.): 16.2 ± 0.8 s | inhibition at 10 µM [12]: 13.9% | discrimination index (DI) ([13]; scopolamine 1 mg/kg i.p. + 10 mg/kg i.g.): 0.21 ± 0.08 | discrimination index (DI) ([13]; scopolamine 1 mg/kg i.p. + 30 mg/kg i.g.): 0.36 ± 0.03 | discrimination index (DI) ([13]; scopolamine 1 mg/kg i.p. + 100 mg/kg i.g.): 0.45 ± 0.05 | immobility time in FST ([14]; 20 mg/kg i.g., 21 days (D01)): 54.53 ± 18.11 s | immobility time in FST ([14]; 40 mg/kg i.g., 21 days): 44.62 ± 17.03 s | IC50 [15]: 10.1 ± 2.4 µM | IC50 ([16]; read-out: IC50 for D01, α1): > 10 µM | % Inhibition of binding by D01 (10 μmol/L) ([16]; α1, 10 μmol/L): 56.21% | Ki [17]: 0.0301 ± 0.0069 µM | minimal effective dose (MED), immobility in TST [18]: 10 mg/kg | immobility time in TST ([19]; 20 mg/kg i.g., 21 days (D01)): 87.61 ± 12.04 s | immobility time in TST ([19]; 40 mg/kg i.g., 21 days): 68.17 ± 20.30 s | inhibition at 10 µM [20]: 16.3% | % Inhibition of binding by D01 (10 μmol/L) [21]: 9.83% | inhibition at 10 µM [22]: 38% | effect on native M current ([23]; 100 μmol/L): dramatically inhibits | IC50 [24]: > 10 µM | inhibition at 10 µM ([24]; read-out: % Inhibition of binding by D01 (10 μmol/L)): 61.8% | time spent on familiar object ([25]; 30 mg/kg i.g.): 7.20 ± 2.73 s | time spent on novel object ([25]; 30 mg/kg i.g.): 18.10 ± 6.42 s | time spent on familiar object ([25]; 100 mg/kg i.g.): 10.90 ± 2.50 s | time spent on novel object ([25]; 100 mg/kg i.g.): 21.90 ± 4.84 s | inhibition at 10 µM [26]: 16.1% | % Inhibition of binding by D01 (10 μmol/L) [27]: 38.43% | minimal effective dose (MED), immobility in FST [28]: 30 mg/kg

CCOC(=O)Nc1ccc(NCc2ccc(F)cc2)cc1N [RTG, retigabine]
effect on native M current ([23]; 10 μmol/L): activated

O=C1c2ccccc2C(Cc2ccncc2)(Cc2ccncc2)c2ccccc21 [XE991, reference compound]
effect on time and distance in target quadrant, probe trial Day 5 ([11]; XE991 1 mg/kg s.c.): did not exhibit any noticeable effects | escape latency after four days of training ([11]; XE991 1 mg/kg s.c.): 33.4 ± 3.4 s | initial escape latency ([11]; XE991 1 mg/kg s.c.): 48.9 ± 3.4 s | discrimination index (DI) ([13]; scopolamine 1 mg/kg i.p. + XE991 1 mg/kg s.c.): 0.36 ± 0.04 | reduction of immobility in FST ([14]; 1 mg/kg s.c.): not statistically significant | reduction of immobility in TST ([19]; 1 mg/kg s.c.): not statistically significant | effect on native M current ([23]; 3 μmol/L): inhibited | time spent on familiar object ([25]; 1 mg/kg s.c.): 16.50 ± 2.63 s | time spent on novel object ([25]; 1 mg/kg s.c.): 38.40 ± 3.80 s

CNCCC(Oc1ccc(C(F)(F)F)cc1)c1ccccc1 (centres unmarked) [fluoxetine, reference compound]
effect on escape latency ([11]; fluoxetine 20 mg/kg i.g.): did not show any significant effect | effect on time and distance in target quadrant, probe trial Day 5 ([11]; fluoxetine 20 mg/kg i.g.): did not exhibit any noticeable effects | improvement in scopolamine-induced cognitive impairment ([13]; scopolamine 1 mg/kg i.p. + fluoxetine 100 mg/kg i.g.): did not show any noticeable improvement | immobility time in FST [14, 29]: 18.7 ± 6.3 s | immobility time in TST [19, 29]: 69.8 ± 14.9 s | difference in time spent on novel and familiar objects ([25]; fluoxetine 100 mg/kg i.g.): no obvious difference

CCN(C)C(=O)Oc1cccc([C@H](C)N(C)C)c1 [rivastigmine, reference compound]
improvement in scopolamine-induced cognitive impairment ([13]; scopolamine 1 mg/kg i.p. + 0.01 mg/kg s.c.): did not show any noticeable improvement
